Tests used:
rice = assay: Test B flooded paddy test; assay type: in vivo, Oryza sativa; settings: Flood, 250 g ai/ha; 0 to 100 scale where 0 is no effect and 100 is complete control
Method in brief: (§1)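 Flooded to 3 cm at the 2-leaf stage, pots received compound through the paddy water and were kept at that depth under greenhouse conditions. After 13–15 days, effect was rated by eye relative to controls, 0 = none and 100 = complete control.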

Heteranthera limosa = assay: Test B flooded paddy test; assay type: in vivo; settings: Flood, 250 g ai/ha; 0 to 100 scale where 0 is no effect and 100 is complete control
Method in brief: as §1

wheat, winter = assay: Test C preemergence; assay type: in vivo, Triticum aestivum; settings: for Wheat plant response rating: preemergence
Method in brief: (§2)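 Whole-plant greenhouse test with surfactant-containing solvent formulation, applied preemergence to sown loam–sand pots or postemergence to 2–18 cm plants. Scored by eye 13 to 15 days on, 0–100 scale.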

lambsquarters [1] = assay: Test C preemergence; assay type: in vivo, Chenopodium album; settings: for Lambsquarters plant response rating: preemergence
Method in brief: as §2

yellow nutsedge = assay: Test C preemergence; assay type: in vivo, Cyperus esculentus; settings: for Nutsedge, Yellow plant response rating: preemergence
Method in brief: as §2

pigweed [2] = assay: Test C preemergence; assay type: in vivo, Amaranthus retroflexus; settings: for Pigweed plant response rating: preemergence
Method in brief: as §2

blackgrass = assay: Test C postemergence; assay type: in vivo, Alopecurus myosuroides; settings: for Plant response rating, Blackgrass: Postemergence
Method in brief: as §2

Italian ryegrass = assay: Test C postemergence; assay type: in vivo, Lolium multiflorum; settings: for Plant response rating, Ryegrass, Italian: Postemergence, scale 0 to 100 (0 no effect, 100 complete control)
Method in brief: as §2

lambsquarters [3] = assay: Test C postemergence; assay type: in vivo, Chenopodium album; settings: for Plant response rating, Lambsquarters: Postemergence, scale 0 to 100 (0 no effect, 100 complete control)
Method in brief: as §2

pigweed [4] = assay: Test C postemergence; assay type: in vivo, Amaranthus retroflexus; settings: for Plant response rating, Pigweed: Postemergence, scale 0 to 100 (0 no effect, 100 complete control)
Method in brief: as §2

soybean = assay: Test C postemergence; assay type: in vivo, Glycine max; settings: for Plant response rating, Soybean: Postemergence, scale 0 to 100 (0 no effect, 100 complete control)
Method in brief: as §2

barnyardgrass = assay: Test C postemergence; assay type: in vivo, Echinochloa crus-galli; settings: for Plant response rating, Barnyardgrass: Postemergence
Method in brief: as §2

kochia = assay: Test C postemergence; assay type: in vivo, Kochia scoparia; settings: for Plant response rating, Kochia: Postemergence
Method in brief: as §2

[5] = 16 g ai/ha, scale 0 to 100 (0 no effect, 100 complete control)
[6] = 62 g ai/ha, scale 0 (no effect) to 100 (complete control)
[7] = 125 g ai/ha, scale 0 (no effect) to 100 (complete control)
[8] = Preemergence, 31 g ai/ha, scale 0 to 100, 0 no effect, 100 complete control
[9] = 16 g ai/ha, postemergence, visual rating, scale 0 to 100 (0 no effect, 100 complete control), 13 to 15 days
[10] = 31 g ai/ha, scale 0 to 100 (0 no effect, 100 complete control), 13 to 15 days
[11] = 62 g ai/ha, scale 0 to 100 (0 no effect, 100 complete control)

CCOc1cn(-c2c(Br)cccc2Oc2ncc(Cl)cn2)nn1 [Compound 84]
50: Plant response rating, Ducksalad (Heteranthera limosa) | Plant response rating, Pigweed (pigweed [4]; 31 g ai/ha, 13 to 15 days)
70: Plant response rating, Kochia (kochia; [11])
90: Plant response rating (0 to 100), Soybean (soybean; 125 g ai/ha, postemergence) | Plant response rating, Soybean (soybean; 62 g ai/ha)
40: Nutsedge, Yellow plant response rating (yellow nutsedge; [7])
80: Plant response rating (0 to 100), Lambsquarters (lambsquarters [3]; 125 g ai/ha, postemergence) | Plant response rating, Pigweed (pigweed [4]; 62 g ai/ha) | Plant response rating (0 to 100), Kochia (kochia; 125 g ai/ha, postemergence)
30: Plant response rating, Lambsquarters (lambsquarters [3]; 31 g ai/ha, 13 to 15 days)
15: Plant response rating (0 to 100), Barnyardgrass (barnyardgrass; 125 g ai/ha, postemergence)
55: Plant response rating, Lambsquarters (lambsquarters [3]; 62 g ai/ha) | Plant response rating, Soybean (soybean; 31 g ai/ha, 13 to 15 days) | Kochia plant response rating (kochia; [9]) | Plant response rating, Kochia (kochia; [10])
0: Plant response rating, Rice (rice) | Wheat plant response rating (wheat, winter; [5]) | Wheat plant response rating (wheat, winter; [6]) | Wheat plant response rating (wheat, winter; [7]) | Plant response rating, Wheat (wheat, winter; [8]) | Nutsedge, Yellow plant response rating (yellow nutsedge; [5]) | Plant response rating, Nutsedge, Yellow (yellow nutsedge; [8]) | Plant response rating (0 to 100), Ryegrass, Italian (Italian ryegrass; 125 g ai/ha, postemergence) | Plant response rating, Ryegrass, Italian (Italian ryegrass; 31 g ai/ha, 13 to 15 days) | Plant response rating, Ryegrass, Italian (Italian ryegrass; 62 g ai/ha) | Barnyardgrass plant response rating (barnyardgrass; [9]) | Plant response rating, Barnyardgrass (barnyardgrass; [10]) | Plant response rating, Barnyardgrass (barnyardgrass; [11])
85: Plant response rating, Lambsquarters (lambsquarters [1]; [8]) | Pigweed plant response rating (pigweed [2]; [5]) | Plant response rating (0 to 100), Pigweed (pigweed [4]; 125 g ai/ha, postemergence)
5: Nutsedge, Yellow plant response rating (yellow nutsedge; [6]) | Blackgrass plant response rating (blackgrass; [9]) | Plant response rating, Blackgrass (blackgrass; [10]) | Plant response rating, Blackgrass (blackgrass; [11])
75: Lambsquarters plant response rating (lambsquarters [1]; [5])
100: Lambsquarters plant response rating (lambsquarters [1]; [6]) | Lambsquarters plant response rating (lambsquarters [1]; [7]) | Pigweed plant response rating (pigweed [2]; [6]) | Pigweed plant response rating (pigweed [2]; [7]) | Plant response rating, Pigweed (pigweed [2]; [8])
20: Plant response rating (0 to 100), Blackgrass (blackgrass; 125 g ai/ha, postemergence)

From patent US9695155B2, “Herbicidal substituted pyrimidinyloxy benzene compounds” (E. I. DU PONT DE NEMOURS AND COMPANY, priority 2013, dated 2017)
